Data from patent EP4567031A1, “HPK1 INHIBITOR, PREPARATION METHOD THEREFOR, AND USE THEREOF” (Beijing Earthwise Technology Co., Ltd., priority 2022, dated 2024).

tested on: human Pan T cells; assay: Human Pan T cell IL-2 ELISA; assay type: cell-based; conditions: Anti-CD3 and Anti-CD28, 48 hours, supernatant IL-2 ELISA, read-out: IL-2 release, EC50
Procedure: A compound was dissolved in DMSO to 10 mM, and then diluted three-fold with DMSO to 9 dosages in a 96-well plate. Then, 10 µL of the diluted compound sample was transferred to a 96-well plate with 90 µL of cell culture medium, and the plate was shaken for 5 minutes. Then, 5 µL of the diluted compound sample was transferred to a 96-well plate with 120 µL of cell culture medium, and the plate was shaken for 5 minutes. According to the experimental design diagram, 50 µL of the diluted compound sample was transferred to a cell plate. Final concentrations of the compound in this assay were 10000.00, 5000, 2500, 1250, 625, 312.5, 156.25, 78.125 and 39.063 nM.
The assay was conducted in a 96-well plate. On the first day of the assay, Anti-CD3 was added to the 96-well plate and incubated in a 4 °C refrigerator overnight. On the second day of the assay, human Pan T cells were recovered, centrifuged and counted. The cell density was adjusted to 1*10^6 cells/ml. Then, 100 µL of cells were added to the 96-well plate washed with PBS and added with Anti-CD3; according to the experimental design diagram, 50 µL of diluted Anti-CD28 and 50 µL of the diluted compound were added to each well, centrifuged, and the cell plate was placed and incubated in an incubator for 48 hours; after 48 hours, the plate was centrifuged and the supernatant was collected for IL-2 ELISA.
The signal value of light absorption was converted into a multiple. Multiple = sample value/the average value of control wells. The average value of control wells refers to the value measured in wells with DMSO added. EC50 values were calculated by XLFit (version 5.3.1.3) in Excel. Equation: Y=Bottom + (Top-Bottom) / (1 + (EC50/X) ^ HillSlope). Table 6. Results of cellular activity of the compounds

Row | Compound | EC50 [nM]
1 | COC1CCCn2c(-c3cc4c(c5c3CNC5=O)Nc3ccc(N5CCOCC5C)cc3C4(C)C)cnc21 (single isomer, unassigned) [Example 180] | 27
2 | COC1CCCn2c(-c3cc4c(c5c3CNC5=O)Nc3ccc(N5CCOCC5C)cc3C4(C)C)cnc21 (single isomer, unassigned) [Example 181] | 26

same assay, conditions: Homo sapiens, T-cell, 48 h, Anti-CD3 and Anti-CD28, supernatant IL-2 ELISA, read-out: IL-2 release, EC50

Row | EC50 [nM] | Compound
3 | 6.33 | CC1(C)c2cc(N3CCOC(C(C)(C)O)C3)ccc2Nc2c1cc(-c1cnc3cc(F)ccn13)c1c2C(=O)NC1 (single isomer, unassigned) [Example 93]
4 | 7.82 | Cc1ccc2c(-c3cc4c(c5c3CNC5=O)Nc3ccc(N5CCOC(C(C)(C)O)C5)cc3C4(C)C)cnn2c1 (single isomer, unassigned) [Example 95]
5 | 18.3 | Cc1ccn2c(-c3cc4c(c5c3CNC5=O)Nc3ccc(N5CCOC(C(C)(C)O)C5)cc3C4(C)C)cnc2c1 (single isomer, unassigned) [Example 106]
6 | 7.23 | CC1(C)c2cc(N3CCOC(C(C)(C)O)C3)ccc2Nc2c1cc(-c1cnc3cc(Cl)ccn13)c1c2C(=O)NC1 (single isomer, unassigned) [Example 125]
7 | 12.4 | COc1c(F)ccn2c(-c3cc4c(c5c3CNC5=O)Nc3ccc(N5CCOC(C(C)(C)O)C5)cc3C4(C)C)cnc12 (single isomer, unassigned) [Example 127]
8 | 22.1 | CC1(C)c2cc(N3CCOC(C(C)(C)O)C3)ccc2Nc2c1cc(-c1cnc3cc(C#N)ccn13)c1c2C(=O)NC1 (single isomer, unassigned) [Example 133]
9 | 19.5 | CCc1ncc(-c2cc3c(c4c2CNC4=O)Nc2ccc(N4CCOC(C(C)(C)O)C4)cc2C3(C)C)n1C (single isomer, unassigned) [Example 134]
10 | 6.5 | CC1(C)c2cc(N3CCOC(C(C)(C)O)C3)ccc2Nc2c1cc(-c1cnn3cc(C#N)ccc13)c1c2C(=O)NC1 (single isomer, unassigned) [Example 145]
11 | 5.7 | Cn1ncc2c(-c3cc4c(c5c3CNC5=O)Nc3ccc(N5CCOC(C(C)(C)O)C5)cc3C4(C)C)cncc21 (single isomer, unassigned) [Example 146]
12 | 21.8 | Cc1c(-c2cc3c(c4c2CNC4=O)Nc2ccc(N4CCOC(C(C)(C)O)C4)cc2C3(C)C)cnn1C1CC1 (single isomer, unassigned) [Example 148]
13 | 68.8 | CCOc1ccc2c(-c3cc4c(c5c3CNC5=O)Nc3ccc(N5CCOC(C(C)(C)O)C5)cc3C4(C)C)cnn2c1 (single isomer, unassigned) [Example 151]
14 | 7.35 | CC1(C)c2cc(N3CCOC(C(C)(C)O)C3)ccc2Nc2c1cc(-c1cnn3cc(Cl)ccc13)c1c2C(=O)NC1 (single isomer, unassigned) [Example 154]
15 | 6.47 | COc1ccc2c(-c3cc4c(c5c3CNC5=O)Nc3ccc(N5CCOC(C(C)(C)O)C5)cc3C4(C)C)cnn2c1 (single isomer, unassigned) [Example 157]
16 | 6.33 | Cc1ccn2c(-c3cc4c(c5c3CNC5=O)Nc3ccc(N5CCOC(C(C)(C)O)C5)cc3C4(C)C)cnc2n1 (single isomer, unassigned) [Example 162]

The next lines start with the compound.

Row | Compound | EC50 [nM]
17 | COC1CCCn2c(-c3cc4c(c5c3CNC5=O)Nc3ccc(N5CCOCC5)cc3C4(C)C)nnc21 (racemic) [Example 120] | 66.7
18 | COC1CCCn2c(-c3cc4c(c5c3CNC5=O)Nc3ccc(N5CCOCC5)nc3C4(C)C)cnc21 (single isomer, unassigned) [Example 25] | 33.4
19 | CC1(C)c2cc(N3CCOC(C(C)(C)O)C3)ccc2Nc2c1cc(-c1cnc3cc(C(F)F)ccn13)c1c2C(=O)NC1 (single isomer, unassigned) [Example 129] | 18.2
20 | COC1CCCn2c(-c3cc4c(c5c3CNC5=O)Nc3ccc(N5CCOC(C(C)(C)O)C5)cc3C4(C)C)cnc21 (single isomer, unassigned) [Example 132] | 10.1
21 | CCOC1CCCn2c(-c3cc4c(c5c3CNC5=O)Nc3ccc(N5CCOCC5)cc3C4(C)C)cnc21 (single isomer, unassigned) [Example 136] | 24.5
22 | COC1CCCn2c(-c3cc4c(c5c3CNC5=O)Nc3ccc(N5CC(C)OC(C)C5)cc3C4(C)C)cnc21 (single isomer, unassigned) [Example 140] | 35.8
23 | Cn1c(-c2cc3c(c4c2CNC4=O)Nc2ccc(N4CCOC(C(C)(C)O)C4)cc2C3(C)C)cnc1C1CCOCC1 (single isomer, unassigned) [Example 141] | 87.3
24 | COC1CCn2c(-c3cc4c(c5c3CNC5=O)Nc3ccc(N5CCOC(C(C)(C)O)C5)cc3C4(C)C)cnc2C1 (single isomer, unassigned) [Example 142] | 25.1
25 | Cn1c(-c2cc3c(c4c2CNC4=O)Nc2ccc(N4CCOC(C(C)(C)O)C4)cc2C3(C)C)cnc1C1CCNC1 (single isomer, unassigned) [Example 143] | 592
26 | COC1CCCn2c(-c3cc4c(c5c3CNC5=O)Nc3cc(C5CCOCC5)ccc3C4(C)C)cnc21 (single isomer, unassigned) [Example 144] | 134
27 | Cn1c(-c2cc3c(c4c2CNC4=O)Nc2ccc(N4CCOC(C(C)(C)O)C4)cc2C3(C)C)cnc1C1CCOC1 (single isomer, unassigned) [Example 147] | 42.7
28 | COC1CCCn2c(-c3cc4c(c5c3CNC5=O)Nc3cc(C)c(N5CCOCC5)cc3C4(C)C)cnc21 (single isomer, unassigned) [Example 150] | 30.6
29 | COC1CCCn2c(-c3cc4c(c5c3CNC5=O)Nc3ccc(N5C6CCC5COC6)cc3C4(C)C)cnc21 (single isomer, unassigned) [Example 152] | 34.6
30 | Cn1c(-c2cc3c(c4c2CNC4=O)Nc2ccc(N4CCOC(C(C)(C)O)C4)cc2C3(C)C)cnc1OC1CCOC1 (single isomer, unassigned) [Example 153] | 46.8
31 | COC1CCCn2c(-c3cc4c(c5c3CNC5=O)Nc3ccc(N5CCOCC5C)cc3C4(C)C)cnc21 (single isomer, unassigned) [Example 155] | 26.6
32 | COC1CCCn2c(-c3cc4c(c5c3CNC5=O)Nc3ccc(N5CCCOCC5)cc3C4(C)C)cnc21 (single isomer, unassigned) [Example 158] | 37.6
33 | CCC1(C)c2cc(N3CCOCC3)ccc2Nc2c1cc(-c1cnc3n1CCCC3OC)c1c2C(=O)NC1 (single isomer, unassigned) [Example 159] | 23.6
34 | COC1CCCn2c(-c3cc4c(c5c3CNC5=O)Nc3ccc(C5CCOCC5)cc3C4(C)C)cnc21 (single isomer, unassigned) [Example 163] | 25
35 | COC1CCCn2c(-c3cc4c(c5c3CNC5=O)Nc3cc(C#N)c(N5CCOCC5)cc3C4(C)C)cnc21 (single isomer, unassigned) [Example 175] | 14
36 | COC1CCCc2c(-c3cc4c(c5c3CNC5=O)Nc3ccc(N5CCOCC5)cc3C4(C)C)cnn21 (single isomer, unassigned) [Example 177] | 25
37 | COC1CCCn2c(-c3cc4c(c5c3CNC5=O)Nc3c(F)cc(N5CCOCC5)cc3C4(C)C)cnc21 (single isomer, unassigned) [Example 178] | 19
38 | COc1cc2c(cc1N1CCOCC1)C(C)(C)c1cc(-c3cnc4n3CCCC4OC)c3c(c1N2)C(=O)NC3 (single isomer, unassigned) [Example 182] | 20
39 | CC1(C)c2cc(N3CCOCC3)ccc2Nc2c1cc(-c1cnc3n1CCCC3OC1CC1)c1c2C(=O)NC1 (single isomer, unassigned) [Example 187] | 15
